One experiment relates to A121. Nature of the experiment: Anticancer activity against human ovarian carcinoma A121 cells. In kind it is functional.
The subject of the next experiment is L1210. Nature of the experiment: Anticancer activity against murine leukemia L1210 cells. It counts as functional, Mus musculus.
The test system of a further experiment is MCF7. The experiment can be described thus: Anticancer activity against human breast carcinoma MCF-7 cells. It counts as functional.
A further experiment concerns WiDr. Nature of the experiment: Anticancer activity against human colon carcinoma WiDr cells. It counts as functional.
A further experiment has as its system NCI-H125. The experiment can be described thus: Anticancer activity against human nonsmall cell lung carcinoma (H125 cells). It counts as functional.

The text below walks through data of ChEMBL document CHEMBL1125036, “Antitumor properties of tetrahydrobenz[a]anthraquinone derivatives” (1990).

Consider `COc1cc2c(c3c1C(=O)c1c(NCCNCCO)ccc(NCCNCCO)c1C3=O)CCCC2`, for which the Activity in the experiment on A121 came out at 100 nM; with L1210, 2 µM; in the experiment on MCF7 it was 1000 nM; in the experiment on WiDr, 960 nM; in the experiment with NCI-H125, 220 nM.
